Source: patent US11400107B2, “Cancer treatments” (NuCana plc, priority 2016, dated 2022)
Entries after “also recorded” stand apart in the source; their conditions may differ.

How the values were obtained:
[1] = system: primary acute myeloid leukaemia (AML) blasts; assay: In vitro cytotoxicity assay (LD50) in primary acute myeloid leukaemia cells; format: cell-based, human; settings: primary AML blasts, 48 h; concentration required to kill 50% of the tumour cells in culture
Method: ProTide compounds, as defined herein, and the comparator ProTide compound NUC-1031 were assayed for their cytotoxic effects on primary cultures of acute myeloid leukaemia (AML) blasts. LD50 values (the concentration required to kill 50% of the tumour cells in culture) were calculated in respect of the ProTide compounds of the invention, and the parent compounds from which they are derived. […] The LD50 values of the ProTide compounds as defined herein (and their parent compounds) were compared with the comparator ProTide NUC-1031 and its parent compound gemcitabine.
Bone marrow samples were collected in ethylenediaminetetraacetic acid (EDTA) from newly diagnosed, previously untreated, acute myeloid leukaemia (AML) patients. AML blasts were enriched by density gradient centrifugation using Histopaque (Sigma, Poole, UK) and were subsequently maintained in Roswell Park Memorial Institute medium (RPMI) supplemented with 10% foetal bovine serum (FBS). Cells were treated with ProTide compounds (either as encompassed by the present invention, or the comparator ProTide NUC-1031) or with the ProTides' parent compounds at a range of experimental concentrations, and incubated for 48 h. All cultures were maintained at 37° C. in a 5% CO2 humidified atmosphere.
Cells were harvested and labelled with CD34-fluorescein isothiocyanate (FITC) (BD Biosciences, Buckingham, UK) and then resuspended in 200 μl of binding buffer containing 4 μl of annexin V labelled with allophycocyanin (APC) (eBioscience Ltd, Hatfield, UK). Apoptosis was quantified in the CD34^+ AML cells using an Accuri C6 flow cytometer (Becton Dickinson, CA, USA). At least 10,000 events were acquired and data were subsequently analysed using FlowJo software (Tree Star Inc., Ashland, Oreg., USA). All LD50 values (concentration of drug required to kill 50% of cells) were derived from the dose-response curves.

[2] = system: Lin^−/CD34^+/CD38^−/CD123^+ cancer stem cells in KG1a cells; assay: Immunophenotypic quantification of the leukaemic stem cell compartment in KG1a cells; format: cell-based, human; settings: KG1a cells
Method: The respective abilities of NUC-1031 and gemcitabine to target CSCs were investigated in the AML cell line KG1a.
KG1a cells were cultured for 72 hours in the presence of a wide range of concentrations of each nucleoside analogue and their respective ProTides. Cells were then harvested and labelled with a cocktail of anti-lineage antibodies (PE-cy7), anti-CD34 (FITC), anti-CD38 (PE) and anti-CD123 (PERCP cy5). The sub-population expressing a leukaemic stem cell (LSC) phenotype were subsequently identified and were expressed as a percentage of all viable cells left in the culture. The percentages of stem cells remaining were then plotted on a dose-response graph and the proportion of cancer stem cells was compared across the various concentrations of ProTides and their respective parent compounds, in order to determine if they preferentially target cancer stem cells.
The data obtained in these experiments were evaluated using one way ANOVA. All data was confirmed as Gaussian or a Gaussian approximation using the omnibus K2 test. LD50 values were calculated from the non-linear regression and line of best-fit analysis of the sigmoidal dose-response curves. All statistical analyses were performed using Graphpad Prism 6.0 software (Graphpad Software Inc., San Diego, Calif.).

`C[C@H](NP(=O)(OC[C@H]1O[C@@H](n2ccc(N)nc2=O)C(F)(F)[C@@H]1O)Oc1ccccc1)C(=O)OCc1ccccc1` (stereo partly drawn) [NUC-1031, 2′-deoxy-2′,2′-difluoro-D-cytidine-5′-O-[phenyl (benzoxy-L-alaninyl)] phosphate] was tested, and the LD50 [1] was “NUC-1031 0.28 μM” and the “selectivity against cancer stem cells compared to the parent compound” value [2] was “preferential targeting of CSCs; also recorded: statistically significantly greater”.
